Measurements taken from patent publication US20240043467A1, “5'-SUBSTITUTED NUCLEOSIDE MONOPHOSPHATES, PRODRUGS THEREOF, AND USES RELATED THERETO” (EMORY UNIVERSITY, priority 2020, published 2024).

Target: T1, Recombinant human thymidylate synthase (hTS) (Homo sapiens, UniProt P04818)
T1 construct: purchased Abcam
Assay: Human thymidylate synthase inhibition assay
Assay type: biochemical
Conditions: for hTS inhibition: highest concentration tested 20 μM
Method: Recombinant human thymidylate synthase (hTS) was purchased from Abcam. […] 5,10-Methylenetetrahydrofolate (calcium salt) was purchased from Boc Sciences and used without further purification.
The hTS inhibition assays were performed on a BioTek Synergy Neo2 plate reader equipped with a Xenon flash lamp and a photodiode array detector. The hTS reaction was conducted at room temperature in a buffer solution (pH 7.5) containing 50 mM Tris-HCl, 1 mM EDTA, 25 mM MgCl2, and 5 mM HCHO. […] 5,10-Methylenetetrahydrofolate was added last to initiate the reaction. Formation of the co-product, dihydrofolate, was monitored at 340 nm. The absorbance at 340 nm was plotted against the reaction time to calculate the reaction rate (i.e., the slope of the linear fitting). The reaction rates at different inhibitor concentrations were normalized to the reaction rate determined in the absence of inhibitor (100% enzymatic activity). The resulting % enzymatic activity values were plotted against the corresponding log value of the inhibitor concentration to construct concentration-response curves. IC50 values were then calculated using non-linear regression (four-parameter logistic equation, see Equation 1 below) in the GraphPad Prism v.9 software.
Y=Ymin+(Ymax−Ymin)/[1+10^((logIC50−X)×Hill Slope)] Equation 1

T1 sequence (P04818 whole entry): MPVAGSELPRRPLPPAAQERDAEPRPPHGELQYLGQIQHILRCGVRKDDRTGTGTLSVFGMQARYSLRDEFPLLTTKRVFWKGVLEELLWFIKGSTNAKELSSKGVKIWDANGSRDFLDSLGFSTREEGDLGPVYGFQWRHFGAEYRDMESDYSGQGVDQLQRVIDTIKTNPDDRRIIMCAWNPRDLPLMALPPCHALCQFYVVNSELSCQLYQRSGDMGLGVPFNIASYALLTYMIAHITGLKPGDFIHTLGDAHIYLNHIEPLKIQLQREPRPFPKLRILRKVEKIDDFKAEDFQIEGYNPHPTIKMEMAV

SMILES: C[C@@H](OP(=O)(O)O)[C@H]1O[C@@H](n2cc(F)c(=O)[nH]c2=O)C[C@@H]1O [MD-7-105, lithium (R)-1-((2S,3S,5R)-5-(5-fluoro-2,4-dioxo-3,4-dihydropyrimidin-1(2H)-yl)-3-hydroxytetrahydrofuran-2-yl)ethyl phosphate]
- IC50 (50 μM dUMP, 0.84 μM hTS, five repeats, pH 7.5, room temperature, read-out: IC50 against hTS): 1210 nM

SMILES: CC(C)(OP(=O)([O-])[O-])[C@H]1O[C@@H](n2cc(F)c(=O)[nH]c2=O)C[C@@H]1O.[Li+].[Li+] [MD-7-115, lithium 2-((2S,3S,5R)-5-(5-fluoro-2,4-dioxo-3,4-dihydropyrimidin-1(2H)-yl)-3-hydroxytetrahydrofuran-2-yl)propan-2-yl phosphate]
- hTS inhibition: inactive

SMILES: C[C@H](OP(=O)(O)O)[C@H]1O[C@@H](n2cc(F)c(=O)[nH]c2=O)C[C@@H]1O [MD-7-112, lithium (S)-1-((2S,3S,5R)-5-(5-fluoro-2,4-dioxo-3,4-dihydropyrimidin-1(2H)-yl)-3-hydroxytetrahydrofuran-2-yl)ethyl phosphate]
- hTS inhibition: inactive
